Experimental data reported in publication PMC11149917, “Translational and Therapeutic Evaluation of RAS-GTP Inhibition by RMC-6236 in RAS-Driven Cancers” (Cancer Discovery, 2024).

System: PRISM panel of 845 cancer cell lines
Test: PRISM assay
Type: cell-based, human
Method: The PRISM cell set comprised 845 cell lines representing more than 45 lineages (see Supplementary Table S1 for cell line information), which largely overlapped with the Cancer Cell Line Encyclopedia; https://portals.broadinstitute.org/ccle). Cell lines were grown in RPMI without phenol red and supplemented with 10% or 20% FBS for adherent and suspended lines, respectively. Parental cell lines were stably infected with a unique 24-nucleotide DNA barcode via lentiviral transduction and blasticidin selection. After selection, barcoded cell lines were expanded and subjected to quality control (Mycoplasma contamination test, an SNP test for confirming cell line identity, and barcode ID confirmation). Approved cell lines were then pooled (20–25 cell lines per pool) based on doubling time similarity and frozen in assay-ready vials.
RMC-6236 was added to 384-well plates at 8-point concentration with 3-fold dilutions in triplicate. These assay-ready plates were then seeded with the thawed cell line pools. Adherent cell pools were plated at 1,250 cells per well, whereas suspension and mixed adherent/suspension pools were plated at 2,000 cells per well. Treated cells were incubated for 5 days, and then lysed. Lysate plates were collapsed together prior to barcode amplification and detection.
Each cell line's unique barcode is located in the 3′UTR of the blasticidin-resistance gene and therefore is expressed as mRNA. Total mRNA was captured using magnetic particles that recognize polyA sequences. Captured mRNA was reverse-transcribed into cDNA and then the sequence containing the unique PRISM barcode was amplified using PCR. Finally, Luminex beads that recognize the specific barcode sequences in the cell set were hybridized to the PCR products and detected using a Luminex scanner which reports the signal as a median fluorescent intensity (MFI).
• Each detection well contained 10 control barcodes in increasing abundances as spike-in controls. For each plate, we first create a reference profile by calculating the median of the log2(MFI) values across negative control wells for each of these spiked-in barcodes. • For each well, a monotonic smooth p-spline was fitted to map the spike-in control levels to the reference profile. Next, we transform the log2(MFI) for each cell barcode using the fitted spline to allow well-to-well comparisons by correcting for amplification and detection artifacts. • Next, the separability between negative and positive control treatments was assessed. In particular, we calculated the error rate of the optimum simple threshold classifier between the control samples for each cell line and plate combination. The error rate is a measure of the overlap of the two control sets and was defined as error = (FP + FN)/n, where FP is false positives, FN is false negatives, and n is the total number of controls. A threshold was set between the distributions of positive and negative control log2(MFI) values (with everything below the threshold said to be positive and above said to be negative) such that this value is minimized. Additionally, we also calculated the dynamic range of each cell line. […] Additionally, any cell line that had less than 2 passing replicates was also omitted for the sake of reproducibility. Finally, we computed viability by normalizing with respect to the median negative control for each plate.
For every gene with nonsilent mutations in at least four cell lines, we compared the AUC values between cells with and without those mutations using a t test. This analysis was carried out for (i) the full data set; (ii) excluding cell lines with nonsilent KRAS mutations; and (iii) excluding cell lines that have either KRAS or NRAS nonsilent mutations.

CCn1c(-c2cc(N3CCN(C)CC3)cnc2[C@H](C)OC)c2c3cc(ccc31)-c1csc(n1)C[C@H](NC(=O)[C@H]1C[C@@H]1C)C(=O)N1CCC[C@H](N1)C(=O)OCC(C)(C)C2 [RMC-6236]
RMC-6236: RevMed PRISM: AUC (LS_AUTONOMIC_GANGLIA): 1 | RMC-6236: RevMed PRISM: AUC (MCAS_OVARY, KRAS p.G12D): 0.5822 | RMC-6236: RevMed PRISM: AUC (MDAMB361_BREAST): 0.8463 | RMC-6236: RevMed PRISM: AUC (MG63_BONE): 0.9083 | RMC-6236: RevMed PRISM: AUC (MIAPACA2_PANCREAS, KRAS p.G12C): 0.3158 | RMC-6236: RevMed PRISM: AUC (MKN1_STOMACH): 0.8375 | RMC-6236: RevMed PRISM: AUC (MMNK1_BILIARY_TRACT): 1 | RMC-6236: RevMed PRISM: AUC (MOLP2_HAEMATOPOIETIC_AND_LYMPHOID_TISSUE): 0.8941 | RMC-6236: RevMed PRISM: AUC (NCIH1373_LUNG, KRAS p.G12C): 0.5175 | RMC-6236: RevMed PRISM: AUC (NCIH1623_LUNG): 0.9336 | RMC-6236: RevMed PRISM: AUC (NCIH1792_LUNG, KRAS p.G12C): 0.4194 | RMC-6236: RevMed PRISM: AUC (NCIH1944_LUNG, KRAS p.G13D): 0.6749 | RMC-6236: RevMed PRISM: AUC (NCIH2110_LUNG): 0.7265 | RMC-6236: RevMed PRISM: AUC (NCIH2170_LUNG): 0.8266 | RMC-6236: RevMed PRISM: AUC (NOZ_LIVER, KRAS p.G12V): 0.4128 | RMC-6236: RevMed PRISM: AUC (NP3_CENTRAL_NERVOUS_SYSTEM): 0.8074 | RMC-6236: RevMed PRISM: AUC (NUGC4_STOMACH): 0.5513 | RMC-6236: RevMed PRISM: AUC (OE21_OESOPHAGUS): 0.7641 | RMC-6236: RevMed PRISM: AUC (OSRC2_KIDNEY): 0.9503 | RMC-6236: RevMed PRISM: AUC (OVKATE_OVARY): 0.9428 | RMC-6236: RevMed PRISM: AUC (PL21_HAEMATOPOIETIC_AND_LYMPHOID_TISSUE, KRAS p.A146V): 0.4905 | RMC-6236: RevMed PRISM: AUC (PSN1_PANCREAS, KRAS p.G12R): 0.3382 | RMC-6236: RevMed PRISM: AUC (RDES_BONE): 0.8941 | RMC-6236: RevMed PRISM: AUC (RERFLCKJ_LUNG): 0.8815 | RMC-6236: RevMed PRISM: AUC (RKN_SOFT_TISSUE, KRAS p.G12V): 0.3219 | RMC-6236: RevMed PRISM: AUC (RL_HAEMATOPOIETIC_AND_LYMPHOID_TISSUE): 0.8075 | RMC-6236: RevMed PRISM: AUC (SKES1_BONE): 0.8643 | RMC-6236: RevMed PRISM: AUC (SKGT2_STOMACH): 0.6916 | RMC-6236: RevMed PRISM: AUC (SKHEP1_LIVER): 0.8776 | RMC-6236: RevMed PRISM: AUC (SNU601_STOMACH, KRAS p.G12D): 0.4515 | RMC-6236: RevMed PRISM: AUC (SNU1076_UPPER_AERODIGESTIVE_TRACT): 0.4839 | RMC-6236: RevMed PRISM: AUC (SNU1079_BILIARY_TRACT): 0.8678 | RMC-6236: RevMed PRISM: AUC (SR786_HAEMATOPOIETIC_AND_LYMPHOID_TISSUE): 0.7042 | RMC-6236: RevMed PRISM: AUC (SUDHL4_HAEMATOPOIETIC_AND_LYMPHOID_TISSUE): 0.8448 | RMC-6236: RevMed PRISM: AUC (SUDHL8_HAEMATOPOIETIC_AND_LYMPHOID_TISSUE): 1 | RMC-6236: RevMed PRISM: AUC (SUIT2_PANCREAS, KRAS p.G12D): 0.6849 | RMC-6236: RevMed PRISM: AUC (SW626_LARGE_INTESTINE, KRAS p.G12V): 0.3255 | RMC-6236: RevMed PRISM: AUC (SW1271_LUNG, NRAS p.Q61R): 0.6986 | RMC-6236: RevMed PRISM: AUC (TC106_BONE): 0.7285 | RMC-6236: RevMed PRISM: AUC (TE8_OESOPHAGUS): 0.7048 | RMC-6236: RevMed PRISM: AUC (TT_THYROID): 1 | RMC-6236: RevMed PRISM: AUC (U2973_HAEMATOPOIETIC_AND_LYMPHOID_TISSUE): 1 | RMC-6236: RevMed PRISM: AUC (UMUC6_URINARY_TRACT): 0.4621 | RMC-6236: RevMed PRISM: AUC (UMUC10_URINARY_TRACT): 0.7756 | RMC-6236: RevMed PRISM: AUC (UMUC11_URINARY_TRACT): 0.952 | RMC-6236: RevMed PRISM: AUC (VAL_HAEMATOPOIETIC_AND_LYMPHOID_TISSUE): 0.8667 | RMC-6236: RevMed PRISM: AUC (YD10B_UPPER_AERODIGESTIVE_TRACT): 0.5303 | RMC-6236: RevMed PRISM: AUC (YD38_UPPER_AERODIGESTIVE_TRACT): 0.4476 | RMC-6236: RevMed PRISM: AUC ([…]02ER_ENDOMETRIUM): 0.8144 | Median AUC (PRISM) (mutant copy number gained KRAS): 0.54 | Median AUC (PRISM) (wild-type KRAS cell lines): 0.78 | Median AUC (PRISM) (wild-type copy number gained KRAS): 0.84
